Patent US20060246047A1, “Peptide wirh apoptosis-inhibiting activity” (priority 2003, published 2006)

Key:
HeLa cells [1] = experiment: STS-induced apoptosis in Hela cells, modified TAT-ART peptides (Example 8); format: cell-based; details: 100, 300 or 1000 nM, 0.2 μM STS, 24 hours
Protocol: The modified TAT-ART1320 peptides used were TAT-ART1420 (SEQ ID NO: 25) and TAT-ART1320P13V (SEQ ID NO: 26), synthesized with a peptide synthesizer.
Hela cells (1×10^5 cells) were seeded in 12-well plates and incubated for 24 hours. Subsequently, cells were pre-treated for 1 hour by adding TAT-ART1320 or its modified peptide at a final concentration of 100, 300, or 1000 nM, followed by the addition of 0.2 μM STS and incubation for 24 hours. Cells without the addition of TAT-ART1320 or STS, together with cells without the addition of TAT-ART1320, were prepared as controls. Following incubation, cell death was evaluated by the trypan blue exclusion method.

HEK 293T cells = experiment: STS-induced Bax-dependent apoptosis in HEK 293T cells, trypan blue exclusion; format: cell-based; details: 0.5 μM STS, 24 hours
Protocol: (§1) It is known that apoptosis induced by staurosporine (STS) is Bax-dependent. Thus, it was examined whether TAT-ART1320 can suppress STS-induced apoptosis.
(§2) HEK 293T cells or HeLa cells, at 5×10^4 cells each, were seeded in 12-well plates and incubated for 24 hours. Subsequently, cells were pre-treated by adding TAT-ART1320 at a final concentration of 100, 300, or 1000 nM, followed by further incubation for 24 hours. Then STS was added to HEK 293T cells and HeLa cells at 0.5 μM and 0.2 μM, respectively, followed by incubation for 24 hours. Cells without the addition of TAT-ART1320 or STS, together with cells without the addition of TAT-ART1320, were prepared as controls. Following incubation, cell death was evaluated by the trypan blue exclusion method.

Bax [2] = biological target: T1, Bax (Homo sapiens, UniProt Q07812); experiment: Apoptosis induced by overexpression of myc-Bax in HEK 293T cells, trypan blue exclusion; format: cell-based; parameters: expressed in transfected cells; host or cells: HEK 293T; details: 100, 300 or 1000 nM, 24 hours
T1 sequence (Q07812 whole entry): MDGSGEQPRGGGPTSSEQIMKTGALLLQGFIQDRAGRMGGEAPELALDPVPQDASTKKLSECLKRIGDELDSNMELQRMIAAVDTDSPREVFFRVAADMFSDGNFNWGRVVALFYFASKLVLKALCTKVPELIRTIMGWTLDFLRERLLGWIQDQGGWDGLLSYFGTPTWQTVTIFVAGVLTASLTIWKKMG
Protocol: (§3) HEK 293T cells (1×10^5 cells) were seeded in 12-well plates and incubated for 24 hours. Subsequently, myc, myc-Bax, or myc-Bak was overexpressed within cells by introducing pCI-myc, pCI-myc-Bax, or pCI-myc-Bakplasmid respectively into HEK 293 T cells. After incubation for 17 hours, TAT-ART1320 was added at a final concentration of 100, 300, or 1000 nM, followed by further incubation for 24 hours. Cells without the addition of TAT-ARTI320 were used as controls. Following incubation, cell death was evaluated by the trypan blue exclusion method.

Bak = biological target: T2, Bak (Homo sapiens, UniProt Q16611); experiment: Apoptosis induced by overexpression of myc-Bak in HEK 293T cells, trypan blue exclusion; format: cell-based; details: 100, 300 or 1000 nM, 24 hours
T2 construct: expressed in transfected cells; host or cells: HEK 293T
T2 sequence (Q16611 1-211): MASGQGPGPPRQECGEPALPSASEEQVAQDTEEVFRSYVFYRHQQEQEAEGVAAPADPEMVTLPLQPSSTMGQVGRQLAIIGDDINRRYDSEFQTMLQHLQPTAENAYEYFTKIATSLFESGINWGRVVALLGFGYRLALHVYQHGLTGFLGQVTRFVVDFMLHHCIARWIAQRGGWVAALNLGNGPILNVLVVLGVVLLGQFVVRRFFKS
Protocol: as §3

HeLa cells [3] = experiment: STS-induced Bax-dependent apoptosis in HeLa cells, trypan blue exclusion; format: cell-based; details: 0.2 μM STS, 24 hours
Protocol: as §1, §2

[4] = test system: brain ischemia model gerbils; experiment: Brain ischemia model, 4 min bilateral common carotid artery occlusion and reperfusion; format: in vivo, gerbil
Protocol: Next, to confirm the effect of the peptide according to the present invention on apoptosis-induced diseases, such as neurodegenerative diseases, using a model of brain ischemia induced by a 4 min occlusion of the bilateral common carotid arteries in gerbils the influence of TAT-ART1320 ([…]) on the neurological symptom scores after reperfusion and on delayed neuronal death in hippocampus four days after reperfusion.
Thirteen-week-old male gerbils (SPF, Japan SLC, Inc.) were kept over a week in a barrier system animal room with controlled temperature (23±2° C), humidity (55±15%), ventilation (at least 5 air changes/hour), and light (12 hour light period, 6:30 a.m. to 6:30 p.m.). The gerbils thus maintained, weighing 60 to 80 g, were used as test animals. Food and water were provided at libitum.
Under ether anesthesia, test animals underwent a midline skin incision in the neck to expose the bilateral internal carotid arteries (the ether anesthesia was stopped on exposure of the bilateral internal carotid arteries), which were occluded bilaterally with artery forceps, to induce brain ischemia. Reperfusion was initiated by removing the artery forceps 4 min after occlusion and the skin was sutured, immediately followed by administration of TAT-ART1320 or saline. Subsequently, test animals were warmed under an infrared lamp until their activity was recovered.
TAT-ART1320 was prepared for administration by dissolving 3 or 30 mg of TAT-ART1320 in 10 ml of saline. This solution was administered at a dose of 10 ml/kg BW. Immediately after reperfusion TAT-ART1320 was intravenously injected into the caudal vain of each animal at 3 mg/kg BW or 30 mg/kg BW, followed by another intravenous injection after 5 hours. (The animals (n=13) receiving TAT-ART1320 at 3 mg/kg BW and animals receiving TAT-ART1320 at 30 mg/kg BW were called the 3 mg/kg group and the 30 mg/kg group, respectively.) The next day, intravenous injection was switched to subcutaneous injection and the same doses of TAT-ART1320 were administered twice at intervals of 5 hours, followed by once-daily SC injection. Animals (n=13: control group) receiving only saline were used as controls.
Immediately after reperfusion and subsequent administration of TAT-ART1320 or saline, observation of symptoms of the central nervous system (disturbance of consciousness, convulsions, suppression of motor responses, blepharoptosis) was started. […]
The bilateral hippocampal regions were excised from the fixed brain and 4 μm paraffin sections (about 1.5 mm posterior from the bregma) were prepared from each hippocampus. […] Subsequently, the length of bilateral hippocampal CA1 regions was measured with an image analyzer (MacSCOPE). Further, the number of survived neurons in each section was counted under a microscope. […]

Bax [5] = biological target: T1, Bax; experiment: STS-induced mitochondrial translocation of Bax in COS7 cells, confocal microscopy; format: cell-based; parameters: expressed in transfected cells; details: 1000 nM pretreatment 1 hour, COS7 with pCI-myc-Bax
Protocol: It is considered that, in order for Bax to induce apoptosis, it is essential for Bax to localize to mitochondria. Thus, the effect of TAT-ARTI320 on STS-induced mitochondrial translocation of Bax was examined.
COS7 cells (4×10^4 cells) were seeded in 12-well plates and incubated for 24 hours and then transfected with 1 μg of the pCI-myc-Bax gene. Subsequently, after further incubation for 23 hours, cells were pretreated for 1 hour with 1000 nM TAT-ART1320. Cells without TAT-ART1320 pretreatment were also prepared as controls. Further, […] of STS and 100 nM MitoTracker Orange (manufactured by Molecular Probes) were added and, after one hour, cells were fixed with 3% formaldehyde solution. Cells without the addition of STS were also prepared as controls.

Bax [6] = biological target: T1, Bax; experiment: Apoptosis-suppressive activity, summary statements without a stated test; format: cell-based; parameters: expressed in transfected cells; host or cells: HEK 293T; details: summary statement
Bax [7] = biological target: T1, Bax; experiment: Bax-induced apoptosis in pCI-Bax-transfected HEK 293T cells with HTA1320 added, trypan blue exclusion; format: cell-based; parameters: expressed in transfected cells; host or cells: HEK 293T; details: survival after 40 hours
Protocol: It was examined whether or not HTAI320, prepared in Example 3, inhibits Bax-induced apoptosis-promoting activity. HEK 293T cells were plated at 1×10^5 cells per well on 12-well plastic dishes and incubated overnight. Subsequently, cells were transfected with pCI-Bax by lipofection using opti-MEM (manufactured by GibcoBRL) and Lipofectamine (manufactured by GibcoBRL). After five hours, the medium was changed and HTA1320 were added at various concentrations. Subsequently, the cell survival rate after 40 hours was evaluated by the trypan blue exclusion method. As a result, HTA1320 inhibited Bax-induced apoptosis-promoting activity.

**Q.** With “TAT-ART1420: modified TAT-ART1320 peptide, ART positions 14 to 20, synthesized with a peptide synthesizer (YGRKKRRQRRRTSSEQIM; TAT-ART1420)” as the molecule, how does the “suppression of STS-induced apoptosis compared with TAT-ART1320 (SEQ ID NO: 2 peptide)” value (HeLa cells [1]) read?
**A.** equal to or greater than that of TAT-ART1320

**Q.** Which “suppression of STS-induced apoptosis compared with TAT-ART1320 (SEQ ID NO: 2 peptide)” value (HeLa cells [1]) does the source give for VTSSEQIM (ART1320P13V) [SEQ ID NO: 7] here?
**A.** stronger suppressive activity

**Q.** Which “concentrations suppressing STS-induced apoptosis” value (HEK 293T cells) does the source give for “TAT-ART1320: HIV-TAT sequence linked to ART positions 13 to 20, synthesized with a peptide synthesizer (YGRKKRRQRRRPTSSEQIM; TAT-ART1320)” here?
**A.** 1 to 100 nM

**Q.** What about the “inhibition of apoptosis induced by overexpression of Bax” value (Bax [2]) of the same molecule?
**A.** inhibits

**Q.** And the “inhibition of apoptosis induced by overexpression of Bak” value (Bak)?
**A.** cannot inhibit

**Q.** What about the “concentrations suppressing STS-induced apoptosis” value (HeLa cells [3]) of the same molecule?
**A.** 100 to 1000 nM

**Q.** What about the “change of neurological symptoms scores with dose” value ([4]; 3 mg/kg and 30 mg/kg groups) of the same molecule?
**A.** dose-dependent decrease

**Q.** What about the “number of survived neurons per unit length in hippocampal CA1” value ([4]; 30 mg/kg group, four days after reperfusion, control 15.4±5.2) of the same molecule?
**A.** 74.5±23.1

**Q.** And the neurological symptoms score ([4]; 30 mg/kg group, i.v. then s.c., control 8.2±1.4, P<0.05)?
**A.** 2.8±0.6

**Q.** And the “neuronal death in hippocampal CA1” value ([4]; 3 and 30 mg/kg groups, four days after reperfusion)?
**A.** significantly suppresses neuronal death

**Q.** What about the “STS-induced mitochondrial localization / translocation of Bax” value (Bax [5]) of the same molecule?
**A.** Bax did not localize to mitochondria

**Q.** Which apoptosis-suppressive activity (Bax [6]) does the source give for “SEQ ID NO: 2: peptide from proline in the 13th position to methionine in the 20th position of the ART sequence (PTSSEQIM; listed as Homo sapiens)” here?
**A.** strong apoptosis-suppressive activity

**Q.** And the “STS-induced mitochondrial localization / translocation of Bax” value (Bax [5])?
**A.** effect of suppressing SIS-induced mitochondrial translocation of Bax

**Q.** How did the “suppression of STS-induced apoptosis compared with TAT-ART1320 (SEQ ID NO: 2 peptide)” value (HeLa cells [1]) turn out when “SEQ ID NO: 1: peptide from threonine in the 14th position to methionine in the 20th position of the ART sequence (TSSEQIM; Inventor Imoto, Masaya Inventor Tabe, Hirokazu Inventor Tashiro, Etsu Inventor OHMORI, Yusuke; listed as Homo sapiens)” was run?
**A.** stronger suppressive activity

**Q.** What about the apoptosis-suppressive activity (Bax [6]) of the same molecule?
**A.** stronger apoptosis- suppressive activity than the peptide (SEQ ID NO: 2)

B1: HTA1320: E. coli-expressed peptide of ART positions 13 to 20 with HIV-Tat sequence and His sequence (protein)
chain: MRGSHHHHHHGMASMTGGQQMGRDLYDDDDKDRWIRPRDLQLVPWYGRKKRRQRRRPTSSEQIM
modifications: His-Tat-ART13/20(HTA1320)
**Q.** What does the source list for B1?
**A.** apoptosis-suppressive activity at low concentrations versus high concentrations (Bax [7]; low concentrations): almost equivalent to that at high concentrations; inhibition of Bax-induced apoptosis-promoting activity (Bax [7]; various concentrations): inhibited
